Results from ChEMBL document CHEMBL1201862, “PubChem BioAssay data set” (2004).
Activity calls are given as the source filed them.

What was measured:
[1] = biological target: T1, Carboxy-terminal domain RNA polymerase II polypeptide A small phosphatase 1 (Homo sapiens, UniProt Q9GZU7); assay: inhibitors of CTDSP1, concentration-response testing, biochemical assay, absorbance-based, actives from ultra-high-throughput screening (AID 540297); assay type: functional
T1 sequence (Q9GZU7 whole entry): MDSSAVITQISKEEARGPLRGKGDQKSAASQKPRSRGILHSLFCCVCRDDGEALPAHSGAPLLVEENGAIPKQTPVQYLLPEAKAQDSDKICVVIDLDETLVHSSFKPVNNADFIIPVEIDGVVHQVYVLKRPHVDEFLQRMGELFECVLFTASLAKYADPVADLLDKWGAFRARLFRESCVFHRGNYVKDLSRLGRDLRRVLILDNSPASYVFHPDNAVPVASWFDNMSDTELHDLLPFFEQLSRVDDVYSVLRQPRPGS

[2] = P. falciparum Dd2 growth inhibitors, dose response, SYBR Green, cherry-picked samples (AID 1159567); assay type: functional, cell-based
[3] = biological target: T2, Polyadenylate-binding protein 1 (Homo sapiens, UniProt P11940); assay: PABP1 MLLE–PAM2 binding inhibitor potency, dose response, biochemical, fluorescence polarization, FITC-PAM2 peptide (AID 602259); assay type: functional; settings: read-out: IC50_Mean
T2 sequence (P11940 whole entry): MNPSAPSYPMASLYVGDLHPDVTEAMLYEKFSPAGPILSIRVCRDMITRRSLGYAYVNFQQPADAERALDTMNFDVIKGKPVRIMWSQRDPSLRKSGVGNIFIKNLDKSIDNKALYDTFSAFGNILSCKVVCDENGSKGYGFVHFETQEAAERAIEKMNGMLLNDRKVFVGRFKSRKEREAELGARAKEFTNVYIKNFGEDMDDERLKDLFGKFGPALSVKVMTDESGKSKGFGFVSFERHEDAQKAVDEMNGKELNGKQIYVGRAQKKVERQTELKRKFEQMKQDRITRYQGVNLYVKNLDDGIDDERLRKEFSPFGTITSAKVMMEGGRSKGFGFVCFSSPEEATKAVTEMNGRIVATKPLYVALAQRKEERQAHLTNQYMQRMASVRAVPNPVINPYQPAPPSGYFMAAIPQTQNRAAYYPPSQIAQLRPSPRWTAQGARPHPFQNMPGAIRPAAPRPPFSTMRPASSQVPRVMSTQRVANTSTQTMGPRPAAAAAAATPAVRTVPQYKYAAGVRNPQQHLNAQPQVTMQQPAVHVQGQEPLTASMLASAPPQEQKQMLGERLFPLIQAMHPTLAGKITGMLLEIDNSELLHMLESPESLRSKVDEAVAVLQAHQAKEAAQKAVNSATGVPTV

[4] = biological target: T2, Polyadenylate-binding protein 1; assay: PABP1 MLLE–PAM2 interaction inhibitors, dose response, miRNA deadenylation inhibitor project, biochemical, fluorescence polarization, Cy5-PAM2 peptide, secondary (AID 602260); assay type: functional; settings: read-out: IC50_Mean
[5] = biological target: T3, Zinc finger protein mex-5 (Caenorhabditis elegans, UniProt Q9XUB2); assay: MEX-5/TCR-2 RNA interaction inhibitors, dose response, biochemical, C. elegans, fluorescence polarization (AID 1960)
T3 sequence (Q9XUB2 whole entry): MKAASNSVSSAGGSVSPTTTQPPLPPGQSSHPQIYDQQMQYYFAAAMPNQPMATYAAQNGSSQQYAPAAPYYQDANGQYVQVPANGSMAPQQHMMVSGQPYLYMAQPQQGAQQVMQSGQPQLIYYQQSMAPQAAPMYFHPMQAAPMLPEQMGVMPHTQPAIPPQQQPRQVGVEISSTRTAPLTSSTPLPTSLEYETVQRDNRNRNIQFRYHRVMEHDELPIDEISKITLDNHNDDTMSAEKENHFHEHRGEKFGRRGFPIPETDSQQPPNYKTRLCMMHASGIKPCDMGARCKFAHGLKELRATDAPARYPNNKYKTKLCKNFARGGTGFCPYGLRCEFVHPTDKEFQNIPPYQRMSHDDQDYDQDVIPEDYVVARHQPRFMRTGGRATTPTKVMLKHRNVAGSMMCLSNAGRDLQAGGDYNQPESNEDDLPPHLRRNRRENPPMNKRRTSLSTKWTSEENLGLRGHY

[6] = biological target: T4, RNA-binding protein pos-1 (Caenorhabditis elegans, UniProt G5EF15); assay: inhibitors of POS-1/mex-3 RNA binding, dose response, biochemical, fluorescence polarization (AID 1964);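 also: purified POS-1 fused to maltose binding protein made in E. coli; potency of compounds blocking POS-1 binding to fluorescent RNA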
T4 sequence (G5EF15 whole entry): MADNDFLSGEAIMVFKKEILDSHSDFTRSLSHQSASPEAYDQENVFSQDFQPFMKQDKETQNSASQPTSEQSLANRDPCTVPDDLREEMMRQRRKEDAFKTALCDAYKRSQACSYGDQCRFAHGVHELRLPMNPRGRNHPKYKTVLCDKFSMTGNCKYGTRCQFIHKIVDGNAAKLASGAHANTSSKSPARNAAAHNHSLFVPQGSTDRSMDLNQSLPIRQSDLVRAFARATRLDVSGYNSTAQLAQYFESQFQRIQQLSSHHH

[7] = Luminescence Cell-Based Dose Confirmation HTS to Identify Activators of 5'UTR Stem-Loop Driven Alpha-Synuclein mRNA Translation in H4 Neuroglioblastoma Cells. [Related pubchem assays: 1829 (Project Summary), 1814 (Primary HTS)]; assay type: functional
[8] = tested on: H4; assay: Luminescence Cell-Based Dose Response HTS to Identify Activators of 5'UTR Stem-Loop Driven Prion Protein mRNA Translation in H4 Neuroglioblastoma Cells. [Related pubchem assays: 1829 (Project Summary), 1814 (Primary HTS)]; assay type: functional; settings: Homo sapiens
[9] = Luminescence Cell-Based Dose Response HTS to Identify Activators of Luciferase Translation or Activity in H4 […] Cells. [Related pubchem assays: 1829 (Project Summary), 1814 (Primary HTS)]; assay type: functional
[10] = biological target: Glucose-6-phosphate 1-dehydrogenase (Homo sapiens, UniProt P11413); assay: human G6PD enzyme inhibitors, dose response, selectivity assay for P. falciparum G6PD inhibitor project, biochemical, fluorescence (AID 504792); assay type: functional
Sequence of Glucose-6-phosphate 1-dehydrogenase (P11413 whole entry): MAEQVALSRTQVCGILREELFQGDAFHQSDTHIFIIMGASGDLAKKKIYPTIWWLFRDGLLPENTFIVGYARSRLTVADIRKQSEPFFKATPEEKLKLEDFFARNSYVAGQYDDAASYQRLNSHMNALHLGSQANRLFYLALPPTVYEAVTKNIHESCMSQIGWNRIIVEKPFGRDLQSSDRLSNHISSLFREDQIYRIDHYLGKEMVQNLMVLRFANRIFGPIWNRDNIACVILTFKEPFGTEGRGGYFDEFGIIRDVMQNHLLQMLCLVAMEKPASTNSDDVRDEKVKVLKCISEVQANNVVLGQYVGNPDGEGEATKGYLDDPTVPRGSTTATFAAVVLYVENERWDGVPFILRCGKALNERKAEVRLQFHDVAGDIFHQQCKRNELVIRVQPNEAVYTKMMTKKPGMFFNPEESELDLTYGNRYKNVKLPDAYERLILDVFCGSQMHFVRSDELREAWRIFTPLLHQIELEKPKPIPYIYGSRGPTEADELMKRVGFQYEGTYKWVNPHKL

[11] = microbe, parasite or virus in culture; assay type: functional; settings: Mycobacterium tuberculosis
[12] = growth suppression of PTEN-null colon cells, dose response, cell-based, HCT116 PTEN knockout (AID 1047); assay type: functional;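 also: HCT116 colon tumor cells with PTEN knocked out; cells exposed to compound for 60 hours before readout; potency for loss of cell viability measured by luminescence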
[13] = growth suppression of beta-catenin-knockout colon cells, dose response, cell-based, HCT116, human colon tumor (AID 1045); assay type: functional;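 also: HCT116 colon tumor cells with beta catenin knocked out; cells exposed to compound for 60 hours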
[14] = biological target: T5, Rac GTPase-activating protein 1 (Homo sapiens, UniProt Q9H0H5); assay: MgcRacGAP GTPase-activating activity inhibitors, confirmation, biochemical, ADP Hunter fluorescence, primary and confirmatory (AID 624330); assay type: functional
T5 sequence (Q9H0H5 whole entry): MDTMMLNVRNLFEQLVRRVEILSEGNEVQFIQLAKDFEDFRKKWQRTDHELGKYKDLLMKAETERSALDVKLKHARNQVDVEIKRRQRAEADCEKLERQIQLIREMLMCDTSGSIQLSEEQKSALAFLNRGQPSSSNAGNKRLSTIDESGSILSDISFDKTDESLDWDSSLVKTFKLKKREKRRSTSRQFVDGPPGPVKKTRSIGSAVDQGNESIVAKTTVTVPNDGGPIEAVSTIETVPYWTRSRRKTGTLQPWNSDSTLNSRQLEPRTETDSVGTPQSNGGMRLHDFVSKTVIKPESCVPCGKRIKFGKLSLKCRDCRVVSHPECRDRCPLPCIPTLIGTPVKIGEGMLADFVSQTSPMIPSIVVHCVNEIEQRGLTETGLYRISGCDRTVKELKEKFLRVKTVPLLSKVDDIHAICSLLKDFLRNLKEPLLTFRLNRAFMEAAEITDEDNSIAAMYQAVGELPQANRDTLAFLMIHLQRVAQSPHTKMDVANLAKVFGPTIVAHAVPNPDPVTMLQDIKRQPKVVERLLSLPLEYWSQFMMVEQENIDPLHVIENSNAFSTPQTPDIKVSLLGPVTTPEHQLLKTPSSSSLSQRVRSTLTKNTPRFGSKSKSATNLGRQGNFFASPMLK

[15] = cells; assay type: functional, cell-based
[16] = cells; assay type: functional, cell-based; remark: listed apart in the source
[17] = biological target: Heat shock protein HSP 90-alpha (Homo sapiens, UniProt P07900); assay type: functional, organism-based
[18] = tested on: INS1; assay: beta cell apoptosis inhibitors, cytokine rescue, dose response, luminescence, retest (AID 449756); assay type: functional, cell-based; settings: Rattus norvegicus;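 also: cell death triggered by IL-1 beta plus TNF-alpha plus IFN-gamma mixture; protective hits raise ATP signal compared with cytokine alone wells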
[19] = biological target: T6, Heat shock factor protein 1 (Mus musculus, UniProt P38532); assay: inhibition of MG132-induced HSE-luciferase signal, confirmation, cell-based, NIH3T3, luminescence, dose retest (AID 2382); assay type: functional;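 also: NIH3T3 fibroblasts with HSF1-driven luciferase reporter stressed by proteasome inhibitor MG132; luminescence from HSF1-driven luciferase expression after 8 hours of MG132 stress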
T6 sequence (P38532 whole entry): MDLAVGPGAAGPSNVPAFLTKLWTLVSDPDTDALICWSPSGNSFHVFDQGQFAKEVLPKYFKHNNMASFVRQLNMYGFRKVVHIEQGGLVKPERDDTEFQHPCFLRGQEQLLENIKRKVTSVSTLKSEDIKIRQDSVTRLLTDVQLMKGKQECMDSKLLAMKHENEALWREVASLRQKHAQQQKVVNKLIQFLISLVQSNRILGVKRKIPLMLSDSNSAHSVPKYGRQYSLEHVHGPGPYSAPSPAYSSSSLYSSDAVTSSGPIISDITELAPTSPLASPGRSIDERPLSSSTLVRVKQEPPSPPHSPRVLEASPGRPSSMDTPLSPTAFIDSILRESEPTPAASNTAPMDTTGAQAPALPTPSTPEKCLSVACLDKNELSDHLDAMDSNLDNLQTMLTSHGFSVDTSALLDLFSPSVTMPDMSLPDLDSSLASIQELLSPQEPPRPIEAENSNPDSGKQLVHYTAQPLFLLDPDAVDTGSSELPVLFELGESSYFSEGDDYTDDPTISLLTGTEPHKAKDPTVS

[20] = biological target: T7, Ubiquitin-conjugating enzyme E2 N (Homo sapiens, UniProt P61088); assay type: functional;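 also: Dose-response confirmation in a TR-FRET assay detecting UBC13-driven polyubiquitin chain formation, inhibition measured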
T7 sequence (P61088 whole entry): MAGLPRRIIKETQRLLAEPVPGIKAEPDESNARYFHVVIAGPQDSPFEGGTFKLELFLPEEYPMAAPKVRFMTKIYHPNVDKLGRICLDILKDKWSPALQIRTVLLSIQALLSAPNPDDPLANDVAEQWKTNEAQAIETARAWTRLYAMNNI

In the case of `O=C1CC(=O)N2N=C(c3ccc([N+](=O)[O-])cc3)SC2=N1`, the IC50 [1] is reported as 5.67 µM (active).

For `CN1C(=O)c2cc(NC(=O)c3cnccn3)ccc2OC[C@H]2O[C@@H](CC(=O)N[C@H]3CCN(Cc4ccccc4)C3)CC[C@H]21`, the AC50 [2] was 6.41 µM (active).

With `O=C(OCc1cc(=O)n2c(n1)sc1ccccc12)c1ccc2c(=O)n3c(nc2c1)CCC3` the IC50 [1] was 5.85 µM (active).

For `NC(=S)N=Nc1c(O)[nH]c2ccc(F)cc12`, the IC50 [3] was > 66 µM (inactive) and the IC50 [4] was > 66 µM (inactive).

In the case of `CCOc1ccc2c(c1)-c1c(ssc1=S)C(C)(C)N2C(=O)CSC1=NCCS1`, the IC50 [3] is reported as > 66 µM (inactive) and the IC50 [4] is reported as > 66 µM (inactive).

For `CCCCc1cn([C@@H](CCCCN)C(=O)N2CCNCC2)nn1`, the EC50 [5] was 26.1 µM (active), the IC50 [3] was 21 µM (inactive) and the EC50 [6] was 31.9 µM (active). The IC50 [4] was > 66 µM (inactive).

For `Cc1ccc(C(=O)Cn2nnc3ccccc32)cc1`, the EC50 [7] was 0.276 µM (active), the EC50 [8] was 77.2 µM (active) and the EC50 [9] was 0.325 µM (active).

In the case of `O=[N+]([O-])c1ccc2c(c1)-c1ccccc1C2O` (stereo not drawn), the IC50 [10] is reported as > 80 µM (inactive).

For `COCC(=O)N1[C@H](CO)[C@@H](c2ccccc2)C12CN(Cc1cc(F)ccc1F)C2`, the AC50 [2] was 18.1 µM (active).

For `Cc1cc(Nc2cc(Cl)nc(Sc3ccc(NC(=O)C4CC4)cc3)n2)[nH]n1`, the CC50 [11] was 35.8 µM (active).

For `COCCNC(=O)C(c1ccncc1)N(Cc1ccccc1)C(=O)Cn1nnc2ccccc21` (stereo not drawn), the EC50 [7] was 4.27 µM (active), the EC50 [8] was 1.08 µM (active) and the EC50 [9] was 15.7 µM (active).

With `O=[N+]([O-])c1cccc(C(=S)N2CCN(c3ccccc3)CC2)c1` the IC50 [3] was > 66 µM (inactive) and the IC50 [4] was > 66 µM (inactive).

With `COc1ccc(Cl)cc1Nc1nc(-c2sc(NC(=O)c3ccccc3)nc2C)cs1` the EC50 [12] was 7.12 µM (active) and the EC50 [13] was 10.3 µM (active).

For `Cn1c(N=C(S)Nc2ccccc2)nc2ccccc21`, the CC50 [11] was > 40 µM (active).

For `N#Cc1ccccc1OCCCN1CCC(Cc2ccccc2)CC1`, the IC50 [14] was 132 µM (active), the EC50 [15] was > 350 µM (not active) and the EC50 [16] was > 350 µM (not active).

In the case of `O=C(O)c1cccc(-n2cccc2/C=C2/NC(=O)N(c3cccc(Cl)c3)C2=O)c1`, the IC50 [1] is reported as 9.53 µM (active).

With `COc1ccc(C(=S)Nc2ccc(C)cc2)cc1` the IC50 [3] was > 66 µM (inactive) and the IC50 [4] was > 66 µM (inactive).

For `N#C[C@@H]1[C@H](c2ccccc2-c2ccc(F)cc2)[C@H](CO)N1C(=O)NC1CCCC1`, the AC50 [2] was 5.12 µM (active).

For `CC1CC(C)CN(C(=O)COC(=O)/C=C/c2ccco2)C1` (stereo not drawn), the IC50 [1] was 19.9 µM (active).

In the case of `CCN1C/C(=C/c2cccc([N+](=O)[O-])c2)C(=O)/C(=C/c2cccc([N+](=O)[O-])c2)C1`, the EC50 [12] is reported as 0.085 µM (active), the AC50 [17] is reported as 4.21 µM (active) and the AC50 [18] is reported as 2.24 µM (active). The EC50 [13] was 0.062 µM (active).

For `c1ccc(-c2ccc3c(n2)CCCO3)cc1`, the EC50 [7] was 47.7 µM (active), the EC50 [8] was 7.05 µM (active) and the EC50 [9] was 55.5 µM (active).

For `CON=C(C(=O)NC1C(=O)N2C(C(=O)O)=C(CSc3nc(=O)c(=O)[nH]n3C)CSC12)c1csc(N)n1` (stereo not drawn), the IC50 [1] was 2.89 µM (active).

With `O=C(CCc1ccccc1)NC(=S)Nc1ccc(S(=O)(=O)N2CCOCC2)cc1` the IC50 [3] was > 66 µM (inactive) and the IC50 [4] was > 66 µM (inactive).

With `Cc1ccc2nc(-c3ccccc3NC(=O)CCC(=O)O)c(O)nc2c1` the EC50 [15] was > 350 µM (not active), the EC50 [16] was > 350 µM (not active) and the EC50 [19] was > 195 µM (not active).

In the case of `CCN(CC)c1nc(N)nc(NS(=O)(=O)c2ccc(Cl)cc2)n1`, the IC50 [10] is reported as > 80 µM (inactive).

In the case of `CCOc1ccc(Cl)cc1/C=N/NC(N)=O`, the IC50 [10] is reported as > 80 µM (inactive) and the IC50 [20] is reported as > 20 µM (inactive).

In the case of `CCCS(=O)(=O)N1CCN=C1SCc1cccnc1`, the IC50 [3] is reported as > 66 µM (inactive) and the IC50 [4] is reported as > 66 µM (inactive).

For `O=c1c2ccccc2nnn1COc1ccc(Cl)cc1Br`, the EC50 [7] was 0.383 µM (active), the EC50 [8] was 15.6 µM (active) and the EC50 [9] was 29.7 µM (active).

With `CC(SCC(=O)Nc1ccccc1)c1nc(O)c2ccccc2n1` (stereo not drawn) the IC50 [10] was 22.3 µM (inactive).

With `Cc1ccc(F)cc1NC(=O)c1sc2ncn(CC(=O)N3CCN(c4ccccn4)CC3)c(=O)c2c1C` the EC50 [7] was > 120 µM (not active), the EC50 [8] was > 120 µM (not active) and the EC50 [9] was > 120 µM (not active).
